≈ marks a conversion by molar mass, not a printed value.
What was measured:
Format in all cases: functional
[1] = test system: Staphylococcus aureus; assay: Antibacterial activity against Staphylococcus aureus Mu50 ATCC 700699
[2] = test system: Staphylococcus aureus; assay: Antibacterial activity against […] Staphylococcus aureus ATCC 13709 SMITH
[3] = test system: Staphylococcus aureus; assay: Antibacterial activity against methicillin-resistant Staphylococcus aureus DB-00026
[4] = test system: Staphylococcus epidermidis; assay: Antibacterial activity against methicillin-resistant Staphylococcus epidermidis ATCC 35984
[5] = test system: Staphylococcus aureus; assay: Antibacterial activity against methicillin-resistant Staphylococcus aureus 562
[6] = test system: Staphylococcus epidermidis; assay: Antibacterial activity against Staphylococcus epidermidis ATCC 12228
[7] = test system: Escherichia coli; assay: Antibacterial activity against Escherichia coli MG1655; details: K-12 substr. MG1655
[8] = test system: Escherichia coli; assay: Antibacterial activity against TolC-deficient Escherichia coli
[9] = test system: Staphylococcus aureus; assay: Antibacterial activity against methicillin-resistant Staphylococcus aureus 1201984
[10] = test system: Staphylococcus aureus; assay: Antibacterial activity against linezolid-resistant Staphylococcus aureus O-128
[11] = test system: Staphylococcus epidermidis; assay: Antibacterial activity against linezolid-resistant Staphylococcus epidermidis 1117174
[12] = test system: Staphylococcus aureus; assay: Antibacterial activity against PVL positive Staphylococcus aureus
[13] = test system: Staphylococcus aureus; assay: Antibacterial activity against Staphylococcus aureus FDA 209P
[14] = test system: Staphylococcus epidermidis; assay: Antibacterial activity against linezolid-resistant Staphylococcus epidermidis 1089191
[15] = test system: Staphylococcus aureus; assay: Antibacterial activity against Staphylococcus aureus ATCC 29213
[16] = test system: Staphylococcus aureus; assay: Antibacterial activity against methicillin-resistant Staphylococcus aureus USA300 BAA-1556
[17] = test system: Enterococcus faecalis; assay: Antibacterial activity against Enterococcus faecalis ATCC 51299
[18] = test system: Enterococcus faecalis; assay: Antibacterial activity against Enterococcus faecalis ATCC 19434
[19] = test system: Enterococcus faecium; assay: Antibacterial activity against vancomycin-resistant Enterococcus faecium 32/133
[20] = test system: Enterococcus faecium; assay: Antibacterial activity against vancomycin-resistant Enterococcus faecium 6A
[21] = test system: Enterococcus faecium; assay: Antibacterial activity against vancomycin-resistant Enterococcus faecium 134
[22] = test system: Enterococcus faecium; assay: Antibacterial activity against Enterococcus faecium ATCC 35667
[23] = test system: Enterococcus faecium; assay: Antibacterial activity against vancomycin-resistant Enterococcus faecium 31/132
[24] = test system: Enterococcus faecium; assay: Antibacterial activity against vancomycin-resistant Enterococcus faecium R1
[25] = test system: Enterococcus faecalis; assay: Antibacterial activity against Enterococcus faecalis ATCC 29212
[26] = test system: Enterococcus faecium; assay: Antibacterial activity against Enterococcus faecium 575
[27] = test system: Enterococcus faecium; assay: Antibacterial activity against Enterococcus faecium ATCC 19434
[28] = test system: Enterococcus faecium; assay: Antibacterial activity against linezolid-resistant Enterococcus faecium 303
[29] = test system: Enterococcus faecium; assay: Antibacterial activity against Enterococcus faecium NLNZ 572
[30] = test system: Enterococcus faecium; assay: Antibacterial activity against vancomycin-resistant Enterococcus faecium 03080 DS
[31] = test system: Enterococcus faecalis; assay: Antibacterial activity against linezolid-resistant Enterococcus faecalis ATCC 29212
[32] = test system: Enterococcus faecium; assay: Antibacterial activity against Enterococcus faecium 45/146

SMILES	MIC [1]	MIC [2]	MIC [3]	MIC [4]	MIC [5]	MIC [6]	MIC [7]	MIC [8]	MIC [9]	MIC [10]	MIC [11]	MIC [12]	MIC [13]	MIC [14]	MIC [15]	MIC [16]	MIC [17]	MIC [21]	MIC [23]	MIC [31]	other results
CC(=O)NC[C@H]1CN(c2ccc(-c3ccc4c(c3)CC3(C(=O)NNC3=O)C3CCCN43)c(F)c2)C(=O)O1 (stereo partly drawn)	4 µg/mL (≈ 7.88 µM)	> 32 µg/mL	8 µg/mL (≈ 15.8 µM)	4 µg/mL (≈ 7.88 µM)	8 µg/mL (≈ 15.8 µM)	8 µg/mL (≈ 15.8 µM)	> 32 µg/mL	16 µg/mL (≈ 31.5 µM)	16 µg/mL (≈ 31.5 µM)	32 µg/mL (≈ 63.1 µM)	> 32 µg/mL	16 µg/mL (≈ 31.5 µM)	16 µg/mL (≈ 31.5 µM)	> 32 µg/mL	8 µg/mL (≈ 15.8 µM)	8 µg/mL (≈ 15.8 µM)	–	–	–	–	–
O=C1NC(=O)C2(Cc3cc(-c4ccc(N5C[C@H](CO)OC5=O)cc4F)ccc3N3CCCCC32)C(=O)N1 (stereo partly drawn)	2 µg/mL (≈ 3.93 µM)	16 µg/mL (≈ 31.5 µM)	4 µg/mL (≈ 7.87 µM)	≤ 1 µg/mL	2 µg/mL (≈ 3.93 µM)	2 µg/mL (≈ 3.93 µM)	> 32 µg/mL	4 µg/mL (≈ 7.87 µM)	2 µg/mL (≈ 3.93 µM)	16 µg/mL (≈ 31.5 µM)	32 µg/mL (≈ 62.9 µM)	2 µg/mL (≈ 3.93 µM)	4 µg/mL (≈ 7.87 µM)	> 32 µg/mL	4 µg/mL (≈ 7.87 µM)	4 µg/mL (≈ 7.87 µM)	1 µg/mL (≈ 1.97 µM)	2 µg/mL (≈ 3.93 µM)	2 µg/mL (≈ 3.93 µM)	2 µg/mL (≈ 3.93 µM)	MIC [18]: 2 µg/mL (≈ 3.93 µM); MIC [19]: 2 µg/mL (≈ 3.93 µM); MIC [20]: 1 µg/mL (≈ 1.97 µM); MIC [22]: 1 µg/mL (≈ 1.97 µM); MIC [24]: 0.25 µg/mL (≈ 0.492 µM); MIC [25]: 2 µg/mL (≈ 3.93 µM); MIC [26]: 2 µg/mL (≈ 3.93 µM); MIC [27]: 2 µg/mL (≈ 3.93 µM); MIC [28]: 8 µg/mL (≈ 15.7 µM); MIC [29]: 4 µg/mL (≈ 7.87 µM); MIC [30]: 1 µg/mL (≈ 1.97 µM); MIC [32]: 1 µg/mL (≈ 1.97 µM)
COC(=O)C1(C(=O)OC)Cc2cc(-c3ccc(N4C[C@H](CNC(C)=O)OC4=O)cc3F)ccc2N2CCOCC21 (stereo partly drawn)	8 µg/mL (≈ 14.4 µM)	> 32 µg/mL	16 µg/mL (≈ 28.8 µM)	4 µg/mL (≈ 7.2 µM)	4 µg/mL (≈ 7.2 µM)	4 µg/mL (≈ 7.2 µM)	> 32 µg/mL	16 µg/mL (≈ 28.8 µM)	4 µg/mL (≈ 7.2 µM)	32 µg/mL (≈ 57.6 µM)	32 µg/mL (≈ 57.6 µM)	4 µg/mL (≈ 7.2 µM)	16 µg/mL (≈ 28.8 µM)	> 32 µg/mL	8 µg/mL (≈ 14.4 µM)	16 µg/mL (≈ 28.8 µM)	–	–	–	–	–
CC(=O)NC[C@H]1CN(c2ccc(-c3ccc4c(c3)CC3(C(=O)NC(=O)NC3=O)C3CCCN43)c(F)c2)C(=O)O1 (stereo partly drawn)	≤ 1 µg/mL	16 µg/mL (≈ 29.9 µM)	2 µg/mL (≈ 3.73 µM)	≤ 1 µg/mL	2 µg/mL (≈ 3.73 µM)	2 µg/mL (≈ 3.73 µM)	> 32 µg/mL	2 µg/mL (≈ 3.73 µM)	4 µg/mL (≈ 7.47 µM)	16 µg/mL (≈ 29.9 µM)	32 µg/mL (≈ 59.8 µM)	2 µg/mL (≈ 3.73 µM)	4 µg/mL (≈ 7.47 µM)	> 32 µg/mL	2 µg/mL (≈ 3.73 µM)	4 µg/mL (≈ 7.47 µM)	2 µg/mL (≈ 3.73 µM)	4 µg/mL (≈ 7.47 µM)	2 to 4 µg/mL (≈ 3.73 to 7.47 µM)	4 µg/mL (≈ 7.47 µM)	MIC [18]: 2 µg/mL (≈ 3.73 µM); MIC [19]: 4 µg/mL (≈ 7.47 µM); MIC [20]: 1 µg/mL (≈ 1.87 µM); MIC [22]: 1 µg/mL (≈ 1.87 µM); MIC [24]: 2 µg/mL (≈ 3.73 µM); MIC [25]: 2 µg/mL (≈ 3.73 µM); MIC [26]: 2 µg/mL (≈ 3.73 µM); MIC [27]: 2 µg/mL (≈ 3.73 µM); MIC [28]: 16 µg/mL (≈ 29.9 µM); MIC [29]: 4 µg/mL (≈ 7.47 µM); MIC [30]: 2 µg/mL (≈ 3.73 µM); MIC [32]: 2 µg/mL (≈ 3.73 µM)
CC(=O)NC[C@H]1CN(c2ccc(N3CCOCC3)c(F)c2)C(=O)O1 [LINEZOLID]	–	2 to 32 µg/mL (≈ 5.93 to 94.9 µM)	2 to 4 µg/mL (≈ 5.93 to 11.9 µM)	2 µg/mL (≈ 5.93 µM)	2 to 4 µg/mL (≈ 5.93 to 11.9 µM)	2 to 4 µg/mL (≈ 5.93 to 11.9 µM)	> 32 µg/mL	2 to 8 µg/mL (≈ 5.93 to 23.7 µM)	–	2 to 32 µg/mL (≈ 5.93 to 94.9 µM)	> 32 µg/mL	0.5 to 4 µg/mL (≈ 1.48 to 11.9 µM)	4 to 32 µg/mL (≈ 11.9 to 94.9 µM)	> 32 µg/mL	2 to 4 µg/mL (≈ 5.93 to 11.9 µM)	2 to 4 µg/mL (≈ 5.93 to 11.9 µM)	–	2 µg/mL (≈ 5.93 µM)	2 µg/mL (≈ 5.93 µM)	> 32 µg/mL	MIC [22]: 0.5 µg/mL (≈ 1.48 µM); MIC [24]: 4 µg/mL (≈ 11.9 µM); MIC [26]: 2 µg/mL (≈ 5.93 µM); MIC [27]: 2 to 4 µg/mL (≈ 5.93 to 11.9 µM); MIC [28]: > 32 µg/mL; MIC [30]: 2 µg/mL (≈ 5.93 µM)
CN[C@H](CC(C)C)C(=O)N[C@H]1C(=O)N[C@@H](CC(N)=O)C(=O)N[C@H]2C(=O)N[C@H]3C(=O)N[C@H](C(=O)N[C@H](C(=O)O)c4cc(O)cc(O)c4-c4cc3ccc4O)[C@H](O)c3ccc(c(Cl)c3)Oc3cc2cc(c3O[C@@H]2O[C@H](CO)[C@@H](O)[C@H](O)[C@H]2O[C@H]2C[C@](C)(N)[C@H](O)[C@H](C)O2)Oc2ccc(cc2Cl)[C@H]1O [VANCOMYCIN]	–	–	–	–	–	–	–	–	–	–	–	–	–	–	–	–	> 32 µg/mL	–	> 32 µg/mL	2 µg/mL (≈ 1.38 µM)	MIC [25]: 2 µg/mL (≈ 1.38 µM)
